The test system of assay [1] is Ghsr-null and wild-type mice. Description: Social interaction test after CSDS. In kind it is in vivo, mouse. From the text: FIG. 41. Effects of P7C3 on CSDS-induced depressive-like behavior, as measured by the social interaction test. (a, b) Times spent in the interaction zone with target present for wild-type (a) and Ghsr-null (b) mice. (c, d) Times spent in the corners by wild-type (c) and Ghsr-null (d) mice. Group sizes indicated. *P<0.05, **P<0.01, as compared to respective vehicle-treated control group.
Next, P7C3 and two chemical analogs were employed to investigate whether P7C3-mediated preservation of ventral DG neurogenesis during CSDS might correlate with an antidepressant-like behavioral effect. […] Conversely, the analog P7C3-S184 (Example 178) replaces bromines on the carbazole moiety with chlorines and the aniline moiety with a naphthyl amine, leaving the analog completely devoid of neuroprotective activity.
CSDS was performed similar to methods used previously in the lab (J. C. Chuang et al., Ghrelin mediates stress-induced food-reward behavior in mice. J Clin Invest 121, 2684 (2011)). Test mice were housed individually in large cages paired with a CD1 aggressor mouse, separated by a plastic divider with holes so as to allow sensory contact. For 5 min a day, the plastic divider was removed, exposing test mice to the CD1 mouse. After 5 min of exposure to the CD1 mouse, test mice were again separated and paired with a new CD1 mouse for the remainder of the 24 hours. This process was repeated for 10 days. Following the 5 min sensory contact on the 10th day, mice were separated and singly housed prior to social interaction test. Control mice were housed in equivalent cages with members of the same strain and handled daily. The social interaction test consists of placing mice in an arena with a small cage at one end. The movements of test mice were tracked for 2.5 min in the absence of another mouse, followed by 2.5 min in the presence of a novel CD1 mouse, or the “target”. Ethovision 3.0 software (Noldus, Leesburg, Va.) measured the duration spent in the interaction zone or in the corners. As done previously, data is presented as time spent in the interaction zone when the target is present or time spent in the corners when the target is present (J. C. Chuang et al., Ghrelin mediates stress-induced food-reward behavior in mice. J Clin Invest 121, 2684 (2011)).

Assay [2] concerns dopaminergic neurons in C. elegans. As to the kind of experiment: MPP+ toxicity to dopaminergic neurons in C. elegans. Conditions: for protection of dopaminergic neurons from MPP+: 10 μM, 5 mM MPP+ for 40 hrs. The format is in vivo. As for the experimental part: FIG. 31. Neuroprotective efficacy of P7C3 and P7C3A20 for MPP^+ toxicity to dopaminergic neurons in C. elegans. Worms were treated with 5 mM MPP^+ for 40 hrs, with pre-incubation for 30 minutes with different concentrations of test compounds or vehicle. […] By contrast, GFP expression was lost after 40 hrs of MPP^+ exposure (unfilled arrow). […] 20 worms were analyzed per group, and each group was performed in triplicate. Data are expressed as mean±SEM.
Genes, metabolic signaling pathways, neurotransmitters and receptor pharmacology are highly conserved between C. elegans and vertebrates, and exposure of C. elegans to MPP^+ has been reported to selectively kill dopaminergic neurons and impair mobility. To investigate the neuroprotective efficacy of P7C3A20, P7C3 and Dimebon from MPP^+ toxicity in C. elegans, we monitored dopaminergic cell death in a transgenic strain of worms in which dopaminergic neurons fluoresce green by virtue of GFP expression driven by the dopaminergic neuron-specific promoter dat-1. […] Cephalic sensilla dopaminergic dendrites were observed under 40× magnification (AMG, Evos fl microscope), and GFP signal was followed from the nerve ring to the tip of the nose, following established protocols. If any part of a dendrite was absent, as evidenced by loss of GFP signal, it was counted as degraded. All analyses were performed blind to treatment group.
Synchronized L1 larvae were plated into each well of a 12-well plate (approximately 400 larvae per well) containing PBS, Vehicle or compounds, with or without 5 mM MPP^+ iodide (Sigma) freshly diluted in PBS. DMSO was used as vehicle (VEH) and the concentration in treatment groups was maintained below 1%. The assay solution ([…]) was incubated for 40 hrs at 20 degrees Celsius. The worms were then washed in dH2O and supernatant was aspirated. To examine dopaminergic neuron toxicity, worms were anesthetized (0.1% tricaine, 0.01% tetramizole) for 5 min and then transferred to microscope slides and coverslipped. Pictures were taken at 40× magnification (AMG, Evos fl microscope). Each experiment was conducted in triplicate with 10-20 worms counted per condition. For quantification, investigators were blind to treatment condition. Quantification was done by observing all four cephalic sensilla (CEP) dendrites, per standard protocol. Briefly, GFP fluorescence was visualized from the nerve ring to the tip of the nose, and if any portion of a dendrite was absent then it was counted as being degenerated.

Assay [3] deals with C. elegans. Description: MPP+-induced mobility deficits in C. elegans. In kind it is in vivo. Conditions: for locomotion (distance traveled by the head in 10 seconds divided by body length): 10 μM with MPP+, VEH 16.2±0.49, MPP+ alone 7.2±0.68; for mobility protected, relative to normal: 10 μM, 5 mM MPP+ for 32 hours. The method, then:
FIG. 32. Protective efficacy of P7C3 and P7C3A20 for MPP^+-induced mobility deficits in C. elegans. The top panels show worms with the head identified by a green dot. […] Tracking is visualized as starting with blue color and progressing to white by the completion of 10 seconds. The green dot was used to determine locomotion, defined as the distance traveled by the head of the worm in 10 seconds divided by body length. Scale bars represent 70 μM. […] When worms were treated with MPP^+, locomotion was reduced more than 50% (7.2±0.68; n=31, p<0.0001). […] P7C3A20 protected mobility to almost 80% of normal (12.8±0.81; n=34, *p<0.01), and 10 μM P7C3 protected almost 60% (m.i. of 9.6±0.72; n=28, *p<0.05). […] (7.7±1.0; n=30). Experiments were performed in triplicate and data are expressed as mean±SEM.
As a behavioral measure of toxicity, worm mobility was assessed 32 hours after MPP^+-exposure. To quantify worm locomotion, video representations were recorded for 10 seconds at 4× magnification using a Nikon Eclipse 80i microscope. Each video segment consisted of 160 frames, and the head of each worm (10-20 worms per group, repeated in triplicate) was manually tracked in each frame using Imera software. The body length of each worm was also measured by Imera software. The ratio of distance traveled to body length was used to determine the movement index, defined as locomotion, as previously established (Wang J., et al. (2009) An ALS-linked mutant SOD1 produces a locomotor defect associated with aggregation and synaptic dysfunction when expressed in neurons of Caenorhabditis elegans. PLoS Genetics e10003350). […] Co-incubation of MPP^+-exposed worms with 10 μM P7C3A20 conferred 80% preservation of locomotion, while 10 μM P7C3 protected to about 60% of normal levels.
A video-based assay was used to assess the swim speed, distance traveled and length of worms. After exposure to MPP^+ for 32 hrs, worms were washed, resuspended in M9 buffer (500 ul) and transferred to microscope slides. A 10 second movie was recorded at 4× magnification using a Nikon Eclipse 80i microscope. Each movie consisted of 160 frames and the distance traveled by the head of each worm was manually tracked in each frame using Imera software. This software was also used to measure the length of the worm body. The ratio of movement distance to body length was used as a movement index, and defined as locomotion per standard protocols.

Entries after “also recorded” stand apart in the source; their conditions may differ.

`OC(CNc1cccc2ccccc12)Cn1c2ccc(Cl)cc2c2cc(Cl)ccc21` (stereo not drawn) [Example P7C3-S184]: the “depression-like behavior, social interaction test” value in assay [1] (CSDS-exposed Ghsr-null mice) and in assay [1] (CSDS-exposed wild-type mice) was “had no effect on stress-induced depressive-like behavior in either genotype” in each case.
For `Cc1ccc2c(c1)c1c(n2CCc2ccc(C)nc2)CCN(C)C1` [Dimebon, 2,3,4,5-Tetrahydro-2,8-dimethyl-5-(2-(6-methyl-3-pyridyl)ethyl)-1H-pyrido(4,3-b)indole, reference compound], the “protection of dopaminergic neurons from MPP+” value (“protection” for short) in assay [2] is given as “failed to protect dopaminergic neurons”. In addition, in assay [3], the “locomotion (distance traveled by the head in 10 seconds divided by body length)” value worked out at 7.7±1.0 and the “mobility protected, relative to normal” value was “offered no protective efficacy; also recorded: did not offer any protection”.
As to `COc1cccc(NCC(F)Cn2c3ccc(Br)cc3c3cc(Br)ccc32)c1` (stereo not drawn) [Example P7C3A20, N-(3-(3,6-dibromo-9H-carbazol-9-yl)-2-fluoropropyl)-3-methoxyaniline], the “onset of neuroprotective efficacy” value in assay [2] (0.1 μM) came out at 30%. In addition, the “protection” value in assay [2] is 80%. Also, in assay [3], the “locomotion (distance traveled by the head in 10 seconds divided by body length)” value is listed as 12.8±0.81 and the “mobility protected, relative to normal” value is reported as 80%.
For the molecule `OC(CNc1ccccc1)Cn1c2ccc(Br)cc2c2cc(Br)ccc21` (stereo not drawn) [Example P7C3], the “depression-like behavior, social interaction test” value was “showed antidepressant efficacy” in assay [1] (CSDS-exposed Ghsr-null mice) and “had no significant effect on depression-like behavior” in assay [1] (CSDS-exposed wild-type mice). Also, the “social interaction test performance” value in assay [1] (non-CSDS-exposed control mice) was “Neither P7C3 nor the two tested analogs influenced social interaction test performance”. Also, in assay [2] (1.0 μM), the “onset of neuroprotective efficacy” value is recorded as 35%. In addition, the “protection” value in assay [2] is “about 50%”. In assay [3], the “locomotion (distance traveled by the head in 10 seconds divided by body length)” value is recorded as 9.6±0.72.

The values above are taken from patent US10183011B2, “Anti-depression compounds” (Board of Regents of the University of Texas System, priority 2009, dated 2019).
